According to patent US5504103A, “Inhibition of phosphatidylinositol 3-kinase with 17 β-hydroxywortmannin and analogs thereof” (Eli Lilly and Company, priority 1993, dated 1996):
Where two headings read alike, the source gives them in different places.

Legend:
[1] = target: bovine brain purified PI 3-kinase; test: Assay of purified PI 3-kinase activity (32P incorporation into phosphatidylinositol, TLC/scintillation); type: biochemical
Protocol: In another, preferred, method, PI 3-kinase was prepared from bovine brain. Two bovine brains (wet weight about 900 g) were obtained from a local slaughterhouse within minutes of slaughter, packed on ice, and homogenized within one hour. Brains were trimmed of excess fat and blood vessels and then homogenized using a Tekmar Tissuemizer (Cincinnati, Ohio) at 4° C. in 20 mM of Tris(pH 8.3) containing 250 mM of sucrose, 6 mM of β-mercaptoethanol, 1 μg/ml of leupeptin, 1 μg/ml of pepstatin A, 0.4 mM of PMSF, and 1 mM of MgCl2.
Following centrifugation for 60 minutes at 10,000×g, the pH of the supernatant (about 1200 mL) was lowered to 5.75 using dropwise addition of 1M acetic acid at 4° C. After stirring for an additional 15 minutes at 4° C., the solution was centrifuged for 60 minutes at 13,500×g. The supernatant was discarded. Pellets were resuspended in Buffer A (20 mM of Tris, pH 8.3, containing 6 mM of β-mercaptoethanol, 0.1 mM of ethylene glycol-bis(β-aminoethyl ether) N,N,N',N'-tetraacetic acid (EGTA), 1 μg/mL of leupeptin, 1 μg/mL of pepstatin A, and 1 mM of MgCl2), and loaded onto a Fast Flow Q Sepharose column (300 ml) at a flow rate of 5 mL/min at 4° C. […]
PI 3-kinase activity was measured as previously described by Matter, W. F., et al., Biochemical and Biophysical Research Communications, 186: 624-631 (1992). […]

[2] = tested on: PI 4-kinase; test: Effect on PI 4-kinase; type: biochemical

COC[C@H]1OC(=O)c2coc3c2[C@@]1(C)C1=C(C3=O)[C@@H]2CC[C@H](O)[C@@]2(C)C[C@H]1OC(C)=O [17β-hydroxywortmannin]
IC50 [1]: 0.2 ng/mL
IC50 ([1]; molar value printed in parentheses, read-out: IC50): 460 pM
effect on PI 4-kinase [2]: no effect
